Where two headings read alike, the source gives them in different places.
Tests used:
[1] = system: G361 malignant melanoma cells; test: In vitro cytotoxicity testing (MTT assay), G361; type: cell-based, human; conditions: 24 h drug exposure, no recovery, read-out: IC50±SD, G361
Description: (§1) A2780 ovarian carcinoma, A2780R cisplatin-resistant ovarian carcinoma, HOS osteosarcoma, G361 malignant melanoma, MCF7 breast carcinoma, A549 lung carcinoma, HeLa cervix carcinoma, 22Rv1 prostate carcinoma and Caco-2 colorectal carcinoma human cancer cell lines were purchased from the European Collection of Cell Cultures (ECACC), while the human non-cancerous hepatocytes (Hep) were supplied by Biopredic Intl. The cell lines were cultured, according to the suppliers`instructions, in RPMI-1640 medium supplemented with 10% of fetal calf serum, 1% of 2 mM glutamine, and 1% penicillin/streptomycin. All cell lines were grown as adherent monolayers at 37°C and 5% CO2 in a humidified atmosphere.
(§2) The cells were seeded to 96-well culture plates, pre-incubated in drug-free media at 37°C for 24 h and treated typically with the 0.01–50.0 μM solutions, prepared from the stock solutions by dilution with medium, for 24 h at 37°C. […] In parallel with compounds 1–8 and the reference drugs, the cells were also treated with vehicle (0.1% DMF in medium; negative control) and Triton X-100 (1%; positive control) to assess the minimal and maximal cell damage, respectively. The MTT assay was used to determine the cell viability; MTT = 3-(4,5-dimethylthiazol-2-yl)-2,5-diphenyltetrazolium bromide. A concentration of the formed dye was evaluated spectrophotometrically at 540 nm (TECAN, Schoeller Instruments LLC).
(§3) The data were expressed as the percentage of viability, where 100% and 0% represents the treatments with negative and positive controls, respectively. The data from the cancer cells were acquired from three independent experiments (conducted in triplicate) using cells from different passages. The resulting IC50 values (μM) were calculated from viability curves and the results are presented as arithmetic mean±SD.

HOS osteosarcoma cells = test: In vitro cytotoxicity testing (MTT assay), HOS; type: cell-based, human; conditions: for IC50: 24 h drug exposure, no recovery, MTT, read-out: IC50±SD, HOS
Description: as §1, §2, §3

[2] = system: A549 lung carcinoma cells; test: In vitro cytotoxicity testing (MTT assay), A549; type: cell-based, human; conditions: 24 h drug exposure, no recovery, read-out: IC50±SD, A549
Description: as §1, §2, §3

[3] = system: A2780 ovarian carcinoma cells; test: In vitro cytotoxicity testing (MTT assay), A2780; type: cell-based, human
Description: (§4) All cell lines were grown as adherent monolayers at 37°C and 5% CO2 in a humidified atmosphere.
(§5) The MTT assay was used to determine the cell viability; MTT = 3-(4,5-dimethylthiazol-2-yl)-2,5-diphenyltetrazolium bromide. A concentration of the formed dye was evaluated spectrophotometrically at 540 nm (TECAN, Schoeller Instruments LLC).
as §3

[4] = system: 22Rv1 prostate carcinoma cells; test: In vitro cytotoxicity testing (MTT assay), 22Rv1; type: cell-based, human; conditions: 24 h drug exposure, no recovery, read-out: IC50±SD, 22Rv1
Description: as §1, §2, §3

[5] = system: A2780R cisplatin-resistant ovarian carcinoma cells; test: In vitro cytotoxicity testing (MTT assay), A2780R; type: cell-based, human; conditions: for resistance factor (RF), IC50(A2780R)/IC50(A2780): 24 h IC50 values; for IC50: 24 h drug exposure, no recovery, MTT, read-out: IC50±SD, A2780R
Description: as §4, §5, §3

[6] = system: human non-cancerous hepatocytes (Hep); test: In vitro cytotoxicity testing (MTT assay), hepatocytes; type: cell-based; conditions: 24 h drug exposure, no recovery
Description: as §1, §2, §3

[7] = system: HeLa cervix carcinoma cells; test: In vitro cytotoxicity testing (MTT assay), HeLa; type: cell-based, human; conditions: 24 h drug exposure, no recovery, read-out: IC50±SD, HeLa
Description: as §1, §2, §3

[8] = system: Caco-2 colorectal carcinoma cells; test: In vitro cytotoxicity testing (MTT assay), Caco-2; type: cell-based, human; conditions: 24 h drug exposure, no recovery, MTT; read-out: IC50±SD, Caco-2
Description: as §4, §5, §3

[9] = system: MCF7 breast carcinoma cells; test: In vitro cytotoxicity testing (MTT assay), MCF7; type: cell-based, human; conditions: 24 h drug exposure, no recovery, read-out: IC50±SD, MCF7
Description: as §1, §2, §3

MCL-1L (37 kDa) = test: Ex vivo Western blot of tumour tissues, MCL-1L; type: in vivo, mice; conditions: pooled tumour samples
Description: (§6) Frozen tumour samples were homogenized by a bench blender IKA DI25 (IKA-Werke, Germany) in the presence of a lysis buffer [cOmplete Protease Inhibitor Cocktail (Roche, Germany), 50 mM Tris-HCl pH 7.5, 1 mM EGTA, 1 mM EDTA, 1 mM sodium orthovanadate, 50 mM sodium fluoride, 5 mM sodium pyrophosphate, 270 mM sucrose, 0.5% (v/v) Triton X-100]. Subsequently, the blended samples were centrifuged at 9.000 g at 4°C for 15 min. The supernatants were collected and the protein concentration was measured by the Brandford’s method using the Brandford reagent (Amresco, USA) according to the manufacturer’s manual. The measured samples were stored at -80°C for the following experiments.
(§7) The expression of caspase 3, MCL-1, p53, and β-actin as loading control were evaluated by Western blot analysis and immunodetection. Lysates were mixed with a denaturing loading dye [250 mM Tris-HCl pH 6.8, 5% (v/v) β-mercaptoethanol, 10% (w/v) sodium dodecyl sulfate, 30% (v/v) glycerol, 0.04% (w/v) bromophenol blue], heated for 5 min at 70°C. To eliminate intra-species variability, and to obtain the same amount of proteins from all experimental groups, all samples from one group of animals were pooled together and loaded onto a 15% polyacrylamide denaturing gel. The final protein amount was 50 μg per well. After protein separation in the gel, they were transferred on the Immun-Blot polyvinylidene difluoride membrane 0.2 μm (Bio-Rad, USA). Then, the membrane was blocked by 5% (w/v) BSA in TBST [10 mM Tris-HCl pH 7.5, 150 mM NaCl, 0.1% (v/v) Tween-20]. […] HRP was detected by Clarity Western ECL Substrate (Bio-Rad, USA) using chemiluminescent documentation system Syngene PXi-4 (UK).

[10] = system: caspase 3 (Cas-3), active form p17; test: Ex vivo Western blot of tumour tissues, cleaved caspase 3; type: in vivo, mice; conditions: pooled tumour samples
Description: The expression of caspase 3, MCL-1, p53, and β-actin as loading control were evaluated by Western blot analysis and immunodetection. Lysates were mixed with a denaturing loading dye [250 mM Tris-HCl pH 6.8, 5% (v/v) β-mercaptoethanol, 10% (w/v) sodium dodecyl sulfate, 30% (v/v) glycerol, 0.04% (w/v) bromophenol blue], heated for 5 min at 70°C. […] The final protein amount was 50 μg per well. After protein separation in the gel, they were transferred on the Immun-Blot polyvinylidene difluoride membrane 0.2 μm (Bio-Rad, USA). Then, the membrane was blocked by 5% (w/v) BSA in TBST [10 mM Tris-HCl pH 7.5, 150 mM NaCl, 0.1% (v/v) Tween-20]. […] HRP was detected by Clarity Western ECL Substrate (Bio-Rad, USA) using chemiluminescent documentation system Syngene PXi-4 (UK).

p53 = test: Ex vivo Western blot of tumour tissues, p53; type: in vivo, mice; conditions: pooled tumour samples
Description: as §6, §7

[11] = system: spleen, renal tissue and tumour tissues of L1210 leukaemia-bearing mice; test: Histological observations (light microscopy, semi-quantitative); conditions: relative scale 0 to 4
Description: Randomly selected paraffin block preparations were stained by standard hematoxylin and eosin stain for light microscopic evaluation. Due to high cellularity, the semi-quantitative method was used for the evaluation of necrosis in well-circumcised and diffuse tumour samples and PMN cells infiltration in normal tissues as an indirect sign of toxicity to healthy tissues. The evaluation of necrotic processes and infiltration by PMN cells was semi-quantitative, based on the percentage of necrotic areas and/or infiltrated area in the view-field of at least three different samples.

[12] = system: L1210 mouse lymphocytic leukaemia cells; test: In vivo antitumour activity testing, L1210 lymphocytic leukaemia model; set-up: species or system mice; conditions: dose equimolar to cisplatin 2 mg/kg, i.p.
Description: The experimental animals used for in vivo antitumour testing were female DBA/2 SPF mice obtained from Charles Rivers Laboratories. The animals were housed in the Sealsafe NEXT—IVC Blue Line Housing System (Tecniplast, Italy) to ensure the best possible experimental conditions and eliminate the risk of possible intergroup cross-contamination, and kept in Plexiglas cages at constant temperature (22±1°C) and relative humidity of 55±5% for one-week adaptation period before the start of the experiment. All experimental procedures were performed according to the National Institute of Health (NIH) Guide for the Care and Use of Laboratory Animals. The protocol was approved by the Expert Committee on the Protection of Animals Against Cruelty at the University of Veterinary and Pharmaceutical Sciences Brno (Permit Number: 71/2013). The number of pharmacological interventions was limited to the necessary minimum in order to minimize the suffering of animals, which were observed regularly for the symptoms connected with the tumour progression. […] No animals had to be sacrificed due to the above mentioned criteria of humane treatment and no post-application deaths within the 2 hours after the application were observed during the experiment. […] The animal tissues for the ex vivo experiments and histological evaluations were taken post mortem, in case of surviving animals immediately after they were sacrificed by the lethal dose of carbon dioxide inhalation, immediately followed by the cervical dislocation.
The animals were monitored several times a day for the signs of tumour progression and distress development.

[13] = system: cisplatin-sensitive HCT116 colon cancer cell line; set-up: method as in PMID 26226326; conditions: cited from earlier work
[14] = system: cisplatin-resistant HCT116 colon cancer cell line; set-up: method as in PMID 26226326; conditions: cited from earlier work
[15] = 24 h drug exposure, no recovery, MTT, read-out: IC50±SD, A2780

Compound	IC50 [1]	IC50 (HOS osteosarcoma cells)	IC50 [2]	IC50 [3, 15]	IC50 [4]	resistance factor (RF), IC50(A2780R)/IC50(A2780) [5]	IC50 [5]	IC50 [6]	IC50 [7]	IC50 [8]	IC50 [9]	other results
[I][Pt][I].c1cnc2[nH]ccc2c1.c1cnc2[nH]ccc2c1 [Complex 1, cis-[Pt(aza)2I2]]	2.9 ± 0.6 µM	0.8 ± 0.4 µM	12.3 ± 1.1 µM	3.5 ± 0.7 µM	4.6 ± 1.2 µM	0.94	3.3 ± 0.3 µM	3.9 µM	7 ± 0.6 µM	3.3 ± 0.2 µM	1.7 ± 0.8 µM	–
Clc1ccnc2[nH]ccc12.Clc1ccnc2[nH]ccc12.[I][Pt][I] [Complex 5, cis-[Pt(4Claza)2I2]]	3.2 ± 0.2 µM	0.5 ± 0.2 µM	4.7 ± 0.3 µM	3.1 ± 0.1 µM	4.2 ± 0.1 µM	1.10	3.4 ± 0.2 µM	4.2 µM	3.8 ± 0.3 µM	2.4 ± 0.7 µM	1.5 ± 0.5 µM	times more potent than cisplatin (HOS osteosarcoma cells; HOS cell line): ≤ 47 times; MCL-1L level in tumour tissue (MCL-1L (37 kDa)): negligible effect; IC50 ([3]; 6 h exposure, read-out: IC50, A2780, time-dependent cytotoxicity): 11 ± 2.9 µM; level of active form of Cas-3 in tumour tissue [10]: has not been observed; p53 level in tumour tissue (p53): did not affect; Areas of necrosis in tumour tissues [11]: 2 (2 = up to 50%); Infiltration of renal tissues (PMN cells) [11]: 1 (1 = up to 25%); Infiltration of spleen (PMN cells) [11]: 3 (3 = up to 75%); tolerability / signs of toxicity (e.g. weight loss) [12]: well-tolerated; percentage of mean survival time T/C [12]: 100%; mean survival time ± SD ([12]; 10 days after implantation, control 17.4±1.6 days): 17.3 ± 2.3 days
Brc1c[nH]c2ncccc12.Brc1c[nH]c2ncccc12.[I][Pt][I] [Complex 3, cis-[Pt(3Braza)2I2]]	3.1 ± 0.2 µM	2.2 ± 1.2 µM	8.8 ± 2.2 µM	2.8 ± 0.3 µM	4.2 ± 1.2 µM	1.14	3.2 ± 0.2 µM	3.9 µM	4.7 ± 0.8 µM	3 ± 0.1 µM	1.9 ± 0.5 µM	–
Clc1c[nH]c2ncccc12.Clc1c[nH]c2ncccc12.[I][Pt][I] [Complex 2, cis-[Pt(3Claza)2I2]]	2.3 ± 1 µM	1.3 ± 0.8 µM	6.4 ± 1.4 µM	3.7 ± 0.4 µM	4.8 ± 2.4 µM	0.89	3.3 ± 0.5 µM	5.9 µM	4.8 ± 0.4 µM	3.1 ± 0.2 µM	1.5 ± 0.4 µM	–
Brc1cnc2[nH]ccc2c1.Brc1cnc2[nH]ccc2c1.[I-].[I-].[Pt+2] [Complex 7, cis-[Pt(5Braza)2I2]]	3.4 ± 0.3 µM	1.4 ± 1.1 µM	7.3 ± 1.6 µM	3.4 ± 0.2 µM	5.1 ± 0.8 µM	1.03	3.5 ± 0.5 µM	3.8 µM	5.4 ± 1.2 µM	3.6 ± 0.2 µM	1.6 ± 0.8 µM	–
N.N.[I-].[I-].[Pt+2] [cis-[PtI2(NH3)2]]	–	–	–	–	–	–	–	–	–	–	–	IC50 [13]: 13.4 µM; IC50 [14]: 4.2 µM

From article PMC5131915, “Platinum(II) Iodido Complexes of 7-Azaindoles with Significant Antiproliferative Effects: An Old Story Revisited with Unexpected Outcomes” (PLoS ONE, 2016)
